The target in data set [1] is C-C chemokine receptor type 1 (Homo sapiens) (UniProt P32246). The experiment in a line: Chemokine CCR1 Eurofins-Panlabs radioligand binding assay. The following applies: Compound concentration 10.0 uM.
In data set [2] the target is Histamine H1 receptor (Homo sapiens) (UniProt P35367). The following applies: Compound concentration 10.0 uM.
In data set [3] the target is MAP/microtubule affinity-regulating kinase 3 (Homo sapiens) (UniProt P27448). The experiment in a line: Protein Serine/Threonine Kinase, MARK3 Eurofins-Panlabs enzyme assay. As to conditions: Compound concentration 10.0 uM.
For data set [4], the target named is Alpha-2A adrenergic receptor (Homo sapiens) (UniProt P08913). Briefly: Adrenergic alpha2A Eurofins-Panlabs radioligand binding assay. Also noted: ligand concentration 1 nM, non-specific ligand with concentration 10 µM WB-4101, incubation time 60 min, incubation temperature 25 °C. The following applies: Compound concentration 10.0 uM.
In data set [5] the target is Sodium-dependent dopamine transporter (Homo sapiens) (UniProt Q01959). The following applies: Compound concentration 10.0 uM.
The target in data set [6] is Platelet-activating factor receptor (Homo sapiens) (UniProt P25105). The experiment in a line: Inhibition of Platelet Activating Factor (PAF) at 10 µM in the Eurofins-Panlabs radioligand binding assay (Eurofins_assay_265010). The following applies: Compound concentration 10.0 uM.
The target of data set [7] is T1, cAMP and cAMP-inhibited cGMP 3',5'-cyclic phosphodiesterase 10A (Homo sapiens, UniProt Q9Y233). The experiment in a line: Cell assay.
In data set [8] the target is Kappa-type opioid receptor (Homo sapiens) (UniProt P41145). As to conditions: Compound concentration 10.0 uM.
For data set [9], the target named is Monoamine oxidase A (MAO-A) (Homo sapiens, UniProt P21397). Briefly: Inhibition of Monoamine Oxidase MAO-A at compound concentration of 10.0 uM in the Eurofins-Panlabs enzyme assay (Eurofins_assay_140010). Details: substrate with concentration 50 uM Kynuramine, incubation time 60 min, incubation temperature 37 C. The following applies: recombinant human MAO-A expressed in insect Hi5 cells, probe kynuramine, compound concentration 10 uM.

For data set [10], the target named is T2, Muscarinic acetylcholine receptor M5 (Homo sapiens) (UniProt P08912).
T2 sequence (whole entry): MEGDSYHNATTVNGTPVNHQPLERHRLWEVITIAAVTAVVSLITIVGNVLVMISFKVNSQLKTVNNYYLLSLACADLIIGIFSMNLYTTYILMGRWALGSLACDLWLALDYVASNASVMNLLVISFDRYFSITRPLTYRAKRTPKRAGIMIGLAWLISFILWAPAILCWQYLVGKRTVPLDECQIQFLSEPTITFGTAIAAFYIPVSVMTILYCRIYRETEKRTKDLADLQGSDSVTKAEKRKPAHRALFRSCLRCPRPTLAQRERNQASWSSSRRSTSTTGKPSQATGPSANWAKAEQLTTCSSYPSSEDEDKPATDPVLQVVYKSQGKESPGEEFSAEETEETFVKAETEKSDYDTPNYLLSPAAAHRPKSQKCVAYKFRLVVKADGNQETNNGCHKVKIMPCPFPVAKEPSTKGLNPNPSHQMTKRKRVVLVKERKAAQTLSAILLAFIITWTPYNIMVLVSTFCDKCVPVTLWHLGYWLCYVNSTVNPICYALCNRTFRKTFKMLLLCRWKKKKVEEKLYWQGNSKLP
The experiment in a line: Inhibition of Muscarinic M5 at 10 µM in the Eurofins-Panlabs radioligand binding assay (Eurofins_assay_253010). Also noted: ligand concentration 0.8 nM. The following applies: Compound concentration 10.0 uM.

In data set [11] the target is T3, Muscarinic acetylcholine receptor M2 (Homo sapiens) (UniProt P08172).
T3 sequence (whole entry): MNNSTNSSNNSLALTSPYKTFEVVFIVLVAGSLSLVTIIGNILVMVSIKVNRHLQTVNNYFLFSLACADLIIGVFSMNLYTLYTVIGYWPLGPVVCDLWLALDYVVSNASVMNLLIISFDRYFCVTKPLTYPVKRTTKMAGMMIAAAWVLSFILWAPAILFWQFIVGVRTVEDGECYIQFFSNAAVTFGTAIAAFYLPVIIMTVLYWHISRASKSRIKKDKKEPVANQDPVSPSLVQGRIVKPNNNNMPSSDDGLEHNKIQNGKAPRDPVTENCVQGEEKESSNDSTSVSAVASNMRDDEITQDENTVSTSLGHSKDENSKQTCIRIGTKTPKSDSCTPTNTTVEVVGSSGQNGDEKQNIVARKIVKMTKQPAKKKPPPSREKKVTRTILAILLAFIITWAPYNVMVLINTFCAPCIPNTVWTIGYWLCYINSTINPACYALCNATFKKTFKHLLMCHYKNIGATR
As to conditions: Compound concentration 10.0 uM.

Data set [12] has as its target Glutamate NMDA receptor (Rattus norvegicus) (UniProt P35439+Q00959+Q00960+Q00961+Q62645+Q8VHN2+Q9R1M7). As to conditions: Compound concentration 10.0 uM.
In data set [13] the target is Glutamate receptor 2 (Homo sapiens) (UniProt P42262). The following applies: Rattus norvegicus; Compound concentration 10.0 uM.
Data set [14] has as its target T4, 5-hydroxytryptamine receptor 1A (Homo sapiens) (UniProt P08908).
T4 sequence (whole entry): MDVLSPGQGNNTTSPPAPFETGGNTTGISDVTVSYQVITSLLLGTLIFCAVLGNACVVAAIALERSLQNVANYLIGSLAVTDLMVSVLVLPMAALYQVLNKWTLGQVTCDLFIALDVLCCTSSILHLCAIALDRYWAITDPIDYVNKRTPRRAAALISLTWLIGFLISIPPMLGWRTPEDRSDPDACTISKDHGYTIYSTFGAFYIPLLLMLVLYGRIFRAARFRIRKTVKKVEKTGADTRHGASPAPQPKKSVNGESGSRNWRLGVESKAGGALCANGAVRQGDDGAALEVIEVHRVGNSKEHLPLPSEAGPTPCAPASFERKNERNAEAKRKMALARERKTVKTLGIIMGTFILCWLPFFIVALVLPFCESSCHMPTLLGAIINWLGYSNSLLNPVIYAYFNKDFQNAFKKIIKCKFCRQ
The following applies: Compound concentration 10.0 uM.

Data set [15] addresses Substance-K receptor (Homo sapiens) (UniProt P21452). Briefly: Inhibition of Tachykinin NK2 at 10 µM in the Eurofins-Panlabs radioligand binding assay (Eurofins_assay_255600). The following applies: Compound concentration 10.0 uM. Also noted: ligand concentration 0.5 nM.
The nature of data set [16]: Inhibition of Atrial Natriuretic Factor (ANF) at 10 µM in the Eurofins-Panlabs radioligand binding assay (Eurofins_assay_211000). As to conditions: Cavia porcellus; Compound concentration 10 uM; Assay protocol publication PMID: 2408776; Detection method Radioligand Binding; Incubation temperature 4 °C; Incubation time 60 min; Ligand Bmax 0.013 pM/ mg protein; Ligand Kd 0.14 nM; Ligand [125I] ANF (rat); Ligand concentration 0.016 nM; Ligand specific binding 78 %; Non-specific ligand with concentration 0.1 µM ANF (rat); Reference compound ANF (rat); Source of ….

Data set [17] addresses D(2) dopamine receptor (Homo sapiens) (UniProt P14416). As to conditions: Compound concentration 10.0 uM.
Data set [18] has as its target Sodium-dependent serotonin transporter (Homo sapiens) (UniProt P31645). As to conditions: Compound concentration 10.0 uM.
In data set [19] the target is Thyrotropin-releasing hormone receptor (Homo sapiens) (UniProt P34981). Briefly: Thyrotropin Releasing Hormone (TRH) Eurofins-Panlabs radioligand binding assay. As to conditions: Rattus norvegicus; Compound concentration 10.0 uM. Details: ligand concentration 3 nM.
The target in data set [20] is T1, cAMP and cAMP-inhibited cGMP 3',5'-cyclic phosphodiesterase 10A. The experiment in a line: Biochemical assay (PDE10A).
Data set [21] addresses Mitogen-activated protein kinase kinase kinase kinase 1 (Homo sapiens) (UniProt Q92918). As to conditions: Compound concentration 100.0 nM.

Activity calls are given as the source filed them. The calls are words filed in the database; no cut-off is given here.

T1 sequence (Q9Y233 whole entry): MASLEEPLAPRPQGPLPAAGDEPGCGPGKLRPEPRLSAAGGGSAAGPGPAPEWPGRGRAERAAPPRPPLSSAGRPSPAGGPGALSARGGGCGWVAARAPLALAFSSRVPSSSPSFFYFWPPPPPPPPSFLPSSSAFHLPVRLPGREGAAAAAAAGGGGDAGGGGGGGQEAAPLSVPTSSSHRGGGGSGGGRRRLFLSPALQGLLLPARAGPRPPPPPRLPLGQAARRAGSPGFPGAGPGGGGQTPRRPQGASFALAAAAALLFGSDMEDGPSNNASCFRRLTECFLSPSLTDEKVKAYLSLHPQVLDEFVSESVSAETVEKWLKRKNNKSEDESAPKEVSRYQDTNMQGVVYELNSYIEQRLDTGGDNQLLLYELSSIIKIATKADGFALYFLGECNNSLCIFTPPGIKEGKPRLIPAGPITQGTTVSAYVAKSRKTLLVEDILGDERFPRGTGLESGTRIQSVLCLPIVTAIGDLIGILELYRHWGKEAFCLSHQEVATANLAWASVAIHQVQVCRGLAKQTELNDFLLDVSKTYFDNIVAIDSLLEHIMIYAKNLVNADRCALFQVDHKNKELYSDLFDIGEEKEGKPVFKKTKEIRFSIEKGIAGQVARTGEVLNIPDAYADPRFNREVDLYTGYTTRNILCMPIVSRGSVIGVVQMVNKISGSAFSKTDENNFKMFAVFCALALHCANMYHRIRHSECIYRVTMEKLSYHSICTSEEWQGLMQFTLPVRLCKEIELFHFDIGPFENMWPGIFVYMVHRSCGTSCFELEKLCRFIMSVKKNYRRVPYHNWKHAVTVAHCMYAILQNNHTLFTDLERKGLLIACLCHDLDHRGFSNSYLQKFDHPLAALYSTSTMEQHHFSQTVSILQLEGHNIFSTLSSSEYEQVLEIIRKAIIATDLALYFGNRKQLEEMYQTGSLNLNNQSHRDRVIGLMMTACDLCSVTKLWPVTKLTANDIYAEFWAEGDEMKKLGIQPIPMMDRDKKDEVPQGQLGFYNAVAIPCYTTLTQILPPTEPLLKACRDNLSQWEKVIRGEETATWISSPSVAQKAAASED
Sequence of MAP/microtubule affinity-regulating kinase 3 (Homo sapiens) (P27448 whole entry, looked up): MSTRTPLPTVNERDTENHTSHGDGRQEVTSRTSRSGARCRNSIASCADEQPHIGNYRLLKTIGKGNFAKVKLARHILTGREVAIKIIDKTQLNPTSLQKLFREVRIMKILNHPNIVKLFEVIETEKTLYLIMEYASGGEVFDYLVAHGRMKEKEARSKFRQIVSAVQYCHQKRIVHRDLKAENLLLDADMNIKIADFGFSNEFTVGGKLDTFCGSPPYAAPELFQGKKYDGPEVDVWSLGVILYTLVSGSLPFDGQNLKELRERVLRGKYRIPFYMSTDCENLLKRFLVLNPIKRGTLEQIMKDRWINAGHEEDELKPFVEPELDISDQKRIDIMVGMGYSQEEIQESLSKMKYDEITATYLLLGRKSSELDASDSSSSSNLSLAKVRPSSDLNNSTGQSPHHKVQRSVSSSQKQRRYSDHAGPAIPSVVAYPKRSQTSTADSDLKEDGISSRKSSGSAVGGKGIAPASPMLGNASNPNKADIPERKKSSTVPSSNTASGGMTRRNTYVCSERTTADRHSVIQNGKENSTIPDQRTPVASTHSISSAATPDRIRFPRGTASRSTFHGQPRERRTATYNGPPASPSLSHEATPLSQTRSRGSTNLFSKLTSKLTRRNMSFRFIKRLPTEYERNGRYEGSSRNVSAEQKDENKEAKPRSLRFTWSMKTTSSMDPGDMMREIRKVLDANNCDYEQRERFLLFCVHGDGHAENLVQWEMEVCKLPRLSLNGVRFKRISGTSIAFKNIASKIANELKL
Sequence of Mitogen-activated protein kinase kinase kinase kinase 1 (Homo sapiens) (Q92918 whole entry, looked up): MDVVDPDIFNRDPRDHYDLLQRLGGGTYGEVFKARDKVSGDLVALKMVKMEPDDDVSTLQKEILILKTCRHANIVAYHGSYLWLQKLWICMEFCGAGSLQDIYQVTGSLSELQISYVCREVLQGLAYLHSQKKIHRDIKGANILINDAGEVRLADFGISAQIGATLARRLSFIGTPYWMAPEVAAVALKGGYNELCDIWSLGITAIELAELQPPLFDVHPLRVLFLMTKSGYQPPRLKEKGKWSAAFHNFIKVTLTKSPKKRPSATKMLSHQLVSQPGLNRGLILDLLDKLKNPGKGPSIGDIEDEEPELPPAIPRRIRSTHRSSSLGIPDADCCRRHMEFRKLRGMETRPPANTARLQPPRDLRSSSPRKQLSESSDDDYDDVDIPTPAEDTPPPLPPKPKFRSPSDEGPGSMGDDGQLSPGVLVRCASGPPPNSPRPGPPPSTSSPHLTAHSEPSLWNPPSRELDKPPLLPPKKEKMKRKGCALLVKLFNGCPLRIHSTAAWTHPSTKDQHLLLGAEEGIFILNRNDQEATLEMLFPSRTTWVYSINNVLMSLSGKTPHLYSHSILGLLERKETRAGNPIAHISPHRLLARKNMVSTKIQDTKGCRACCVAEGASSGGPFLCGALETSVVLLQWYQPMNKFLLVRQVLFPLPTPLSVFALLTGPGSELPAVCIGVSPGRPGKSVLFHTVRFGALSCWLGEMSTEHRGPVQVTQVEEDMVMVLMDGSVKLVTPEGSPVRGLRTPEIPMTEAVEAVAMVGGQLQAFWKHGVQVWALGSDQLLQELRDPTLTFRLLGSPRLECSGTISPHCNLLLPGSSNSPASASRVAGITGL
Sequence of D(2) dopamine receptor (Homo sapiens) (P14416 whole entry): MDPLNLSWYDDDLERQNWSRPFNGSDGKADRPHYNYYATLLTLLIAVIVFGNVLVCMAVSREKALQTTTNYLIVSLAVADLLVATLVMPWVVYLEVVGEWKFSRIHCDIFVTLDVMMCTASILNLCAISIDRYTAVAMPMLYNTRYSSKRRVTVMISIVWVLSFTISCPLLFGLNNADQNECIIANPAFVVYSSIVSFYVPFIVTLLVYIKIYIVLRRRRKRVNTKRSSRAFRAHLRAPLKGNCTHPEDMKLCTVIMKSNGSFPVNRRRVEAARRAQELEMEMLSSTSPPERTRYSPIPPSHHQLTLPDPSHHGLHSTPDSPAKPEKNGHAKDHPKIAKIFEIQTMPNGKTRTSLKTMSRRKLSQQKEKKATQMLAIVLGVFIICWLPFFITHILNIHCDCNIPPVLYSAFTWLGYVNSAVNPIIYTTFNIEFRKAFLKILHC
Sequence of Substance-K receptor (Homo sapiens) (P21452 whole entry): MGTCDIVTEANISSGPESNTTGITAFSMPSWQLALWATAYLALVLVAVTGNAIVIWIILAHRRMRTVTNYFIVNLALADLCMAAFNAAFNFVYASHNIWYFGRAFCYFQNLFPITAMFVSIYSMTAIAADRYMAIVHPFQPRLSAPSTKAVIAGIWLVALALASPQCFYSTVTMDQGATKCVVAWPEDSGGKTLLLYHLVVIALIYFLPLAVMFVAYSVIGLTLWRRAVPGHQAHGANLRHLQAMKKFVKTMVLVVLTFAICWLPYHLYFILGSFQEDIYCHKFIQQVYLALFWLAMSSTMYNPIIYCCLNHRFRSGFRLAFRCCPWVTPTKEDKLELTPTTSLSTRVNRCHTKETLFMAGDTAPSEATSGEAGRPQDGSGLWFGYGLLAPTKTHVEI
Sequence of Kappa-type opioid receptor (Homo sapiens) (P41145 whole entry): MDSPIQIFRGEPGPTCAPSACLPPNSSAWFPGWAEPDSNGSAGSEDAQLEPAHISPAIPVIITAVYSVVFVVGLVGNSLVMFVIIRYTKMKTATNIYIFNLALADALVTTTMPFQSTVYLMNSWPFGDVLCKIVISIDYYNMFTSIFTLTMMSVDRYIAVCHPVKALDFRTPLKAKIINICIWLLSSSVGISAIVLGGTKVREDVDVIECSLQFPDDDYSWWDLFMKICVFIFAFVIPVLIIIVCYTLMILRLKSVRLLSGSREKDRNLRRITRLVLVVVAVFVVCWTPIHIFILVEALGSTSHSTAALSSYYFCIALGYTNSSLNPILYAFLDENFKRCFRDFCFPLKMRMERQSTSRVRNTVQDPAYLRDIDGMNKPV
Sequence of Alpha-2A adrenergic receptor (Homo sapiens) (P08913 whole entry): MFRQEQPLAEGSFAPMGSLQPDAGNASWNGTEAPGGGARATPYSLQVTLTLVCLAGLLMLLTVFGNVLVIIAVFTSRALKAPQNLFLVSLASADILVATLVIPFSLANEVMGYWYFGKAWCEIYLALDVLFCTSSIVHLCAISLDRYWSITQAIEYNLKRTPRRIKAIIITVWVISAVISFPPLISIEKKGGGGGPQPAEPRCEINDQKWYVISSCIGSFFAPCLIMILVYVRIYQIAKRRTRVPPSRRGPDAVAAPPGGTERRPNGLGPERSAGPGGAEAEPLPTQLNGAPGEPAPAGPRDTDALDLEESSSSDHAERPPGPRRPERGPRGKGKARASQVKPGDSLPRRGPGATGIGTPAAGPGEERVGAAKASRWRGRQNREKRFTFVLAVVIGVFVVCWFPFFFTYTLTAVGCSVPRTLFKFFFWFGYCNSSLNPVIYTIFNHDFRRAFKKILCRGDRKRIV
Sequence of Sodium-dependent dopamine transporter (Homo sapiens) (Q01959 whole entry): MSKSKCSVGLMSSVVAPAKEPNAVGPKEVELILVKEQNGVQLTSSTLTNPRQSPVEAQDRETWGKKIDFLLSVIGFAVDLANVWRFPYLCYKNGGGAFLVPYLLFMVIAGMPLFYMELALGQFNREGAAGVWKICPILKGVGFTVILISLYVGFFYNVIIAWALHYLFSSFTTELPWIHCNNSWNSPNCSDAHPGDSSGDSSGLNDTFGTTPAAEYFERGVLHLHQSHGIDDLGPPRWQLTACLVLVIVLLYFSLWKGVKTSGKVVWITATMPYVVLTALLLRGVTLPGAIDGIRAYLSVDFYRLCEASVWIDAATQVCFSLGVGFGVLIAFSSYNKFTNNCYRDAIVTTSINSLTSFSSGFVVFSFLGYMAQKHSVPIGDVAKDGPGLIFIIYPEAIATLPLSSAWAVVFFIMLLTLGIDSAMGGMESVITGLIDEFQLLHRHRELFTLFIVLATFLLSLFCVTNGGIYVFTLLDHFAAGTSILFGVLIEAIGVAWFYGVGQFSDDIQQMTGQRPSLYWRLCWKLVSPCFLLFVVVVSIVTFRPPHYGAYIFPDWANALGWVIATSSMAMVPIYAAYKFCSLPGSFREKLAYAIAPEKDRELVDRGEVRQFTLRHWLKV

Usually inhibition stands for the drop in the measured response relative to a control, in per cent. One may read the IC50 as the concentration that gives 50% inhibition. Turning to `COCCOc1nc(-c2ccc(Cl)nc2)nc2c1CN(C(=O)c1ncn3ccccc13)CC2` [THPP-1], the inhibition in data set [1] is 11%; in [2], 0%; in data set [3], 7%; in [4], -3%; in data set [5] it was -3%; in data set [6], -4%. Further, the inhibition in data set [8] is 2%; in data set [10], 1%; in [11] it was 5%; in data set [12], 3%; in data set [13], -10%; in [14], 8%. Moreover, the inhibition in [15] was 18%; in data set [17] it was 3%; in data set [18], 2.72%; in data set [19], 7%. Also, in data set [7], the IC50 was 49 nM (active). In addition, in [9], the inhibition at 60 min, 10 µM is 42% (not active). Also, in data set [16], the inhibition at 10 µM is listed as 0% (not active).

The term Ki denotes the equilibrium dissociation constant of an inhibitor or competing ligand from its target. As to `CC(C)CC(=O)N1CCc2nc(-c3ccc(Br)cc3)nc(N(C)Cc3ccccc3)c2C1` [THPP-1-NC], the Ki in data set [20] is given as 522 nM (not active). For the same compound, the residual activity in data set [21] was 93%.

The record behind these values is ChEMBL document CHEMBL4507293 (2021).
